Patent US9198906B2, “Ketoconazole enantiomer in humans” (Cortendo AB (publ), priority 2006, dated 2015)

Legend:
[1] = test system: patients with type 2 diabetes mellitus; assay: Phase 2a trial, LDL cholesterol; type: in vivo, human; details: for LDL cholesterol Visit 1 mean: Visit 1 (baseline, before first dose); for LDL cholesterol Mean % change / LDL cholesterol change mean / LDL cholesterol Visit 3 mean: 14 daily doses; for LDL cholesterol Visit 3 mean: Visit 3 (Day 15)
Protocol: (§1) Five (5) dose groups were studied.
(§2) The first dose of the study drug was given on Day 1 at 2200 h. Activity markers measured on Day 1 prior to administration of the drug (“Visit 1”). The last dose of study drug was given on Day 14 at 2200 h and activity markers measured on Day 15 (“Visit 3”). Measurements of safety markers were taken on Visits 1 and 3, as well as Visit 2 (Day 8) and Visit 4 (Day 28).

[2] = test system: patients with type 2 diabetes mellitus; assay: Phase 2a trial, fructosamine (glycemic control); type: in vivo, human; details: for Fructosamine Visit 1 mean: Visit 1 (baseline, before first dose); for Fructosamine Change vs Baseline mean / Fructosamine Visit 3 mean: 14 daily doses; for Fructosamine Visit 3 mean: Visit 3 (Day 15)
Protocol: as §1, §2
Fructosamine levels were measured at baseline and after two weeks of therapy (see Table 4 and FIGS. 1 and 2). […] Fructosamine levels reflect blood glucose levels over the preceding 2-3 weeks.

[3] = test system: patients with type 2 diabetes mellitus; assay: Phase 2a trial, HbA1c (glycemic control); type: in vivo, human; details: for Visit 1 HbA1c mean: Visit 1 (Day 1, before first dose, baseline); for HbA1c Change vs Baseline mean / Visit 3 HbA1c mean: 14 daily doses; for Visit 3 HbA1c mean: Visit 3 (Day 15)
Protocol: as §1, §2
This test measure levels of glycated hemoglobin and reflects the average blood glucose level for a subject over the preceding 3 months (approximately). Elevated levels are common in diabetics. Lowering the hemoglobin A1c number can delay or prevent the development of serious eye, kidney, and nerve disease in individuals with diabetes.

[4] = test system: patients with type 2 diabetes mellitus; assay: Phase 2a trial, total cholesterol; type: in vivo, human; details: for Total cholesterol Visit 1 mean: Visit 1 (baseline, before first dose); for Total cholesterol Change mean / Total cholesterol Mean % change / Total cholesterol Visit 3 mean: 14 daily doses; for Total cholesterol Visit 3 mean: Visit 3 (Day 15)
Protocol: as §1, §2

[5] = test system: patients with type 2 diabetes mellitus; assay: Phase 2a trial, continuous blood pressure monitoring; type: in vivo, human; details: Visits 1 and 3, 14 daily doses
Protocol: as §1
Continuous blood pressure monitoring was performed during Visits 1 and 3.

[6] = test system: patients with type 2 diabetes mellitus; assay: Phase 2a trial, liver function tests (AST/ALT/AP)
Protocol: as §2

[7] = plasma; Beagle dogs, racemic ketoconazole 30 mg/dog intravenous bolus
Protocol: The pharmacokinetics of each of the ketoconazole enantiomers was studied following intravenous administration of racemic ketoconazole. Racemic ketoconazolewas dissolved in ethanol to 60 mg/ml. Each of three Beagle dogs was administered 0.5 ml bolus (30 mg/dog) intravenously.
Blood was collected from each dog prior to dosing (“0 min”) and at 2, 5, 10, 15, 30 min, and 1, 2, 4, 6, 8, and 24 hrs post-dosing. At each timepoint, blood (0.3 mL/sample) was collected and placed into labeled Microtainer® tubes with heparin as the anti-coagulant. The heparinized blood was centrifuged, and the supernatant pipetted off into another set of labeled Eppendorf® tubes. The derived plasma samples were analyzed for each of the two ketoconazole enantiomers (2S,4R and 2R,4S) and pharmacokinetic parameters determined for each of the enantiomers.

[8] = test system: patients with type 2 diabetes mellitus; assay: Phase 2a trial, C-reactive protein (marker of inflammation); type: in vivo, human; details: for C-Reactive Protein (CRP) Visit 1 mean: Visit 1 (baseline, before first dose); for C-Reactive Protein (CRP) Visit 3 mean: Visit 3 (Day 15)
Protocol: as §1, §2

[9] = test system: patients with type 2 diabetes mellitus; assay: Phase 2a trial, fasting glucose; details: two weeks of treatment
Description: The secondary objective was to determine the pharmacokinetic (PK) profile in plasma of the 2S,4R enantiomer after a single dosing and after fourteen daily doses. In addition the pharmacodynamic activity of fourteen daily doses of the 2S,4R enantiomer, as reflected by changes in blood pressure, total and LDL cholesterol, CRP, plasma and salivary cortisol, cortisol binding globulin, measures of glycemic control (fructosamine, HbA1c and fasting blood glucose levels).
Five (5) dose groups were studied. The dose groups are as follows (N=subjects who completed the study):

[10] = target: T1, 14a-lanosterol demethylase (Rattus norvegicus, UniProt Q64654); details: compared with the other (2R,4S) enantiomer; Rotstein et al. 1992; cited from earlier work
T1 sequence (Q64654 1-503): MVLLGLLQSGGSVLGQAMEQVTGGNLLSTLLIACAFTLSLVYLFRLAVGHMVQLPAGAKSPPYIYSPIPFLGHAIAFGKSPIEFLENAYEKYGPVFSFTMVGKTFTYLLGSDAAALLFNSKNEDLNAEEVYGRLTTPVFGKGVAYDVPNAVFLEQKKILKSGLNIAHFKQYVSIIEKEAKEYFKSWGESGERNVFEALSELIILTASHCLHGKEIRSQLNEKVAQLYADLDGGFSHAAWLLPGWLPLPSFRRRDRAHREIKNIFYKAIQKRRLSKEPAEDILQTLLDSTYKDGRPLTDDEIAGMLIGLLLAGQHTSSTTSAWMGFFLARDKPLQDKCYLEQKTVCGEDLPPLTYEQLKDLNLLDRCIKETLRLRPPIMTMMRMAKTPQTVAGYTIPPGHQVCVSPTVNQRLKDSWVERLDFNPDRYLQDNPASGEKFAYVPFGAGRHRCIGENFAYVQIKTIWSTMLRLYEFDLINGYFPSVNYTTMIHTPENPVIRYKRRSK

[11] = Subject 02-002, 200 mg DIO-902, Screening Visit
[12] = Subject 02-002, 200 mg DIO-902, Visit 1 (pre-1st dose)
[13] = Subject 02-002, 200 mg DIO-902, Visit 2
[14] = Subject 02-002, 200 mg DIO-902, Visit 3 (last dose)
[15] = Subject 04-004, 400 mg DIO-902, Screening Visit
[16] = Subject 04-004, 400 mg DIO-902, Visit 1 (pre-1st dose)
[17] = Subject 04-004, 400 mg DIO-902, Visit 2
[18] = Subject 04-004, 400 mg DIO-902, Visit 3 (last dose)
[19] = Subject 04-010, 400 mg DIO-902, Screening Visit
[20] = Subject 04-010, 400 mg DIO-902, Visit 1 (pre-1st dose)
[21] = Subject 04-010, 400 mg DIO-902, Visit 2
[22] = Subject 04-010, 400 mg DIO-902, Visit 3 (last dose)

Substance: 2S,4R ketoconazole [DIO-902]
- LDL cholesterol Visit 1 mean ([1]; 200 mg po QD group): 141.60 mg/dL
- LDL cholesterol Mean % change ([1]; 200 mg po QD): −11.39%
- LDL cholesterol change mean ([1]; 200 mg po QD): -17.20 mg/dL
- LDL cholesterol Visit 3 mean ([1]; 200 mg po QD): 124.40 mg/dL
- LDL cholesterol Visit 1 mean ([1]; 400 mg po QD group): 133.33 mg/dL
- LDL cholesterol Mean % change ([1]; 400 mg po QD): −27.44%
- LDL cholesterol change mean ([1]; 400 mg po QD): -35.50 mg/dL
- LDL cholesterol Visit 3 mean ([1]; 400 mg po QD): 97.83 mg/dL
- LDL cholesterol Visit 1 mean ([1]; 600 mg po QD group): 125.67 mg/dL
- LDL cholesterol Mean % change ([1]; 600 mg po QD): −42.14%
- LDL cholesterol change mean ([1]; 600 mg po QD): -41.25 mg/dL
- LDL cholesterol Visit 3 mean ([1]; 600 mg po QD): 70.67 mg/dL
- effect on LDL-C ([1]; two-week administration): Statistically significant, dose dependent decreases
- Fructosamine Visit 1 mean ([2]; 200 mg po QD group): 262 µmol/L
- Fructosamine Change vs Baseline mean ([2]; 200 mg po QD): -12.20 µmol/L
- Fructosamine Visit 3 mean ([2]; 200 mg po QD): 249.80 µmol/L
- Fructosamine Visit 1 mean ([2]; 400 mg po QD group): 271.00 µmol/L
- Fructosamine Change vs Baseline mean ([2]; 400 mg po QD): -8.33 µmol/L
- Fructosamine Visit 3 mean ([2]; 400 mg po QD): 262.67 µmol/L
- Fructosamine Visit 1 mean ([2]; 600 mg po QD group): 276.33 µmol/L
- Fructosamine Change vs Baseline mean ([2]; 600 mg po QD): -29.33 µmol/L
- Fructosamine Visit 3 mean ([2]; 600 mg po QD): 247.00 µmol/L
- effect on fructosamine ([2]; administration for 14 days): trends toward a reduction
- Visit 1 HbA1c mean ([3]; 200 mg po QD group): 8.18%
- HbA1c Change vs Baseline mean ([3]; 200 mg po QD): −0.32%
- Visit 3 HbA1c mean ([3]; 200 mg po QD): 7.86%
- Visit 1 HbA1c mean ([3]; 400 mg po QD group): 7.88%
- HbA1c Change vs Baseline mean ([3]; 400 mg po QD): −0.18%
- Visit 3 HbA1c mean ([3]; 400 mg po QD): 7.70%
- Visit 1 HbA1c mean ([3]; 600 mg po QD group): 9.10%
- HbA1c Change vs Baseline mean ([3]; 600 mg po QD): −0.47%
- Visit 3 HbA1c mean ([3]; 600 mg po QD): 8.63%
- effect on HbA1c ([3]; administration for 14 days): trends toward a reduction
- Total cholesterol Visit 1 mean ([4]; 200 mg po QD group): 227.20 mg/dL
- Total cholesterol Change mean ([4]; 200 mg po QD): -26.10 mg/dL
- Total cholesterol Mean % change ([4]; 200 mg po QD): −11.66%
- Total cholesterol Visit 3 mean ([4]; 200 mg po QD): 202.45 mg/dL
- Total cholesterol Visit 1 mean ([4]; 400 mg po QD group): 224.50 mg/dL
- Total cholesterol Change mean ([4]; 400 mg po QD): -34.00 mg/dL
- Total cholesterol Mean % change ([4]; 400 mg po QD): −15.35%
- Total cholesterol Visit 3 mean ([4]; 400 mg po QD): 190.50 mg/dL
- Total cholesterol Visit 1 mean ([4]; 600 mg po QD group): 195.33 mg/dL
- Total cholesterol Change mean ([4]; 600 mg po QD): -48.75 mg/dL
- Total cholesterol Mean % change ([4]; 600 mg po QD): −29.97%
- Total cholesterol Visit 3 mean ([4]; 600 mg po QD): 130.33 mg/dL
- effect on total cholesterol ([4]; two-week administration): Statistically significant, dose dependent decreases
- effect on blood pressure readings [5]: no reductions
- evidence of hepatotoxicity ([6]; 14 daily doses): not observed
- ALT [6, 11]: 30 u/L
- AP [6, 11]: 110 u/L
- AST [6, 11]: 58 u/L
- ALT [6, 12]: 22 u/L
- AP [6, 12]: 100 u/L
- AST [6, 12]: 34 u/L
- ALT [6, 13]: 21 u/L
- AP [6, 13]: 103 u/L
- AST [6, 13]: 30 u/L
- ALT [6, 14]: 19 u/L
- AP [6, 14]: 97 u/L
- AST [6, 14]: 35 u/L
- ALT [6, 15]: 25 u/L
- AP [6, 15]: 132 u/L
- AST [6, 15]: 48 u/L
- ALT [6, 16]: 25 u/L
- AP [6, 16]: 108 u/L
- AST [6, 16]: 49 u/L
- ALT [6, 17]: 28 u/L
- AP [6, 17]: 125 u/L
- AST [6, 17]: 49 u/L
- ALT [6, 18]: 25 u/L
- AP [6, 18]: 130 u/L
- AST [6, 18]: 46 u/L
- ALT [6, 19]: 27 u/L
- AP [6, 19]: 73 u/L
- AST [6, 19]: 49 u/L
- ALT [6, 20]: 24 u/L
- AP [6, 20]: 60 u/L
- AST [6, 20]: 48 u/L
- ALT [6, 21]: 14 u/L
- AP [6, 21]: 82 u/L
- AST [6, 21]: 40 u/L
- ALT [6, 22]: 19 u/L
- AP [6, 22]: 64 u/L
- AST [6, 22]: 38 u/L
- liver function test values outside the normal range at baseline (hepato-protection, words) ([6]; two patients): normalized
- clearance [7]: 8.08 mL/min/kg
- terminal half life [7]: 1.397 h
- C-Reactive Protein (CRP) Visit 1 mean ([8]; 200 mg po QD group): 6.91 mg/L
- CRP Mean % change vs baseline ([8]; 200 mg po QD, 14 daily doses): −19.8%
- C-Reactive Protein (CRP) Visit 3 mean ([8]; 200 mg po QD, 14 daily doses): 4.78 mg/L
- C-Reactive Protein (CRP) Visit 1 mean ([8]; 400 mg po QD group): 4.02 mg/L
- CRP Mean % change vs baseline ([8]; 400 mg po QD, 14 daily doses): −27.35%
- C-Reactive Protein (CRP) Visit 3 mean ([8]; 400 mg po QD, 14 daily doses): 2.95 mg/L
- C-Reactive Protein (CRP) Visit 1 mean ([8]; 600 mg po QD group): 8.35 mg/L
- CRP Mean % change vs baseline ([8]; 600 mg po QD, 14 daily doses): −48.64%
- C-Reactive Protein (CRP) Visit 3 mean ([8]; 600 mg po QD, 14 daily doses): 5.05 mg/L
- effect on CRP ([8]; 14 daily doses): dose-dependent decrease
- Reductions in fasting glucose levels [9]: up to 15 mg/dL
- activity against 14a-lanosterol demethylase [10]: more active
